The record followed here is ChEMBL document CHEMBL2440117, “Improved inhibitory activities against tumor-cell migration and invasion by 15-benzylidene substitution derivatives of andrographolide” (Bioorg Med Chem Lett, 2013).

Active and inactive are the calls of the source. The calls are words filed in the database; no cut-off is given here.

Test [1] deals with SGC-7901. Kind of test: Downregulation of MMP-7 mRNA expression in human SGC7901 cells after 48 hrs by semi-quantitative RT-PCR analysis. The class given is functional, cell-based.
Test [2] concerns A549. Kind of test: Cytotoxicity against human A549 cells assessed as growth inhibition at 10 uM after 48 hrs by MTT assay. The class given is functional, cell-based. Background: Tetrazolium dyes change colour on reduction, which living cells bring about.
For test [3], the system named is 5637. Kind of test: Antimigratory activity against human 5637 cells at 2.5 uM after 12 to 48 hrs by wound-healing assay. Type of test: functional, cell-based.
Test [4] has as its system HT-29. Kind of test: Cytotoxicity against human HT-29 cells assessed as growth inhibition at 10 uM after 48 hrs by MTT assay. The class given is functional, cell-based.
The test system of test [5] is ECa-109. In words: (§1) Antimigratory activity against human EC109 cells at 10 uM after 12 to 48 hrs by wound-healing assay relative to control. The class given is functional.
In test [6] the test system is SGC-7901. Kind of test: Antimigratory activity against human SGC7901 cells at 10 uM after 12 to 48 hrs by wound-healing assay relative to control. The class given is functional.
The subject of test [7] is A549. In words: Antimigratory activity against human A549 cells at 5 uM after 12 to 48 hrs by wound-healing assay relative to control. The class given is functional.
For test [8], the system named is SGC-7901. In words: Cytotoxicity against human SGC7901 cells assessed as growth inhibition at 10 uM after 48 hrs by MTT assay relative to control. The class given is functional, cell-based.
Test [9] concerns 5637. Kind of test: Cytotoxicity against human 5637 cells assessed as growth inhibition at 5 uM after 48 hrs by MTT assay relative to control. The class given is functional. Particulars: Homo sapiens, 5637, 48 h; read-out: GI.
Test [10] deals with SGC-7901. In words: Antiinvasive activity against human SGC7901 cells at 5 to 10 uM after 24 hrs by matrigel invasion assay relative to control. The class given is functional, cell-based.
The test system of test [11] is SGC-7901. Kind of test: Downregulation of MMP-9 mRNA expression in human SGC7901 cells at 10 uM after 48 hrs by semi-quantitative RT-PCR analysis. Type of test: functional, cell-based.
The subject of test [12] is ECa-109. In words: Cytotoxicity against human EC109 cells assessed as growth inhibition at 10 uM after 48 hrs by MTT assay. The class given is functional, cell-based.
Test [13] relates to 5637. In words: Antimigratory activity against human 5637 cells at 5 uM after 12 to 48 hrs by wound-healing assay relative to control. Type of test: functional.
Test [14] relates to HT-29. Kind of test: Antimigratory activity against human HT-29 cells at 10 uM after 12 to 48 hrs by wound-healing assay relative to control. Type of test: functional.
For test [15], the system named is PC-3. Kind of test: Cytotoxicity against human PC3 cells assessed as growth inhibition at 10 uM after 48 hrs by MTT assay relative to control. Type of test: functional.
The test system of test [16] is SGC-7901. In words: Antiinvasive activity against human SGC7901 cells at 10 uM after 24 hrs by matrigel invasion assay relative to control. The class given is functional. Particulars: SGC-7901, 24 h.
Test [17] has as its system SGC-7901. Kind of test: Effect on MMP-2 mRNA expression in human SGC7901 cells at 10 uM after 48 hrs by semi-quantitative RT-PCR analysis. Type of test: functional, cell-based.
For test [18], the system named is PC-3. In words: Antimigratory activity against human PC3 cells at 10 uM after 12 to 48 hrs by wound-healing assay relative to control. The class given is functional.
Test [19] has as its system A549. In words: Antimigratory activity against human A549 cells after 12 to 48 hrs by wound-healing assay. The class given is functional, cell-based.
Test [20] is described as follows: as §1. Particulars: ECa-109. Type of test: functional.
The subject of test [21] is SGC-7901. Kind of test: Antimigratory activity against human SGC7901 cells after 12 to 48 hrs by wound-healing assay. Type of test: functional, cell-based.
Test [22] deals with SGC-7901. Kind of test: Downregulation of MMP-9 protein expression in human SGC7901 cells at 2.5 to 10 uM after 72 hrs by microscopic analysis. The class given is functional, cell-based.
Test [23] concerns SGC-7901. Kind of test: Downregulation of MMP-7 protein expression in human SGC7901 cells at 2.5 to 10 uM after 72 hrs by microscopic analysis. Type of test: functional, cell-based.
In test [24] the test system is SGC-7901. In words: Downregulation of MMP-2 mRNA expression in human SGC7901 cells at 1.25 uM after 48 hrs by semi-quantitative RT-PCR analysis. The class given is functional, cell-based.
The subject of test [25] is SGC-7901. Kind of test: Downregulation of MMP-7 mRNA expression in human SGC7901 cells at 1.25 to 10 uM after 48 hrs by semi-quantitative RT-PCR analysis. Type of test: functional, cell-based.
Test [26] has as its system SGC-7901. In words: Antiinvasive activity against human SGC7901 cells after 24 hrs by matrigel invasion assay. To be noted: SGC-7901, 24 h. The class given is functional, cell-based.
The subject of test [27] is SGC-7901. In words: Downregulation of MMP-2 protein expression in human SGC7901 cells at 10 uM after 72 hrs by microscopic analysis. The class given is functional, cell-based.
The subject of test [28] is SGC-7901. Kind of test: Downregulation of MMP-9 mRNA expression in human SGC7901 cells at 1.25 to 2.5 uM after 48 hrs by semi-quantitative RT-PCR analysis. Type of test: functional, cell-based.
The test system of test [29] is A549. Kind of test: Antimigratory activity against human A549 cells at 10 uM after 12 to 48 hrs by wound-healing assay relative to control. The class given is functional.
The subject of test [30] is 5637. In words: Antimigratory activity against human 5637 cells after 12 to 48 hrs by wound-healing assay. Type of test: functional, cell-based.
Test [31] deals with 5637. In words: Cytotoxicity against human 5637 cells assessed as growth inhibition at 10 uM after 48 hrs by MTT assay relative to control. The class given is functional, cell-based.
The subject of test [32] is PC-3. Kind of test: Antimigratory activity against human PC3 cells after 12 to 48 hrs by wound-healing assay. Type of test: functional, cell-based.
Test [33] relates to 5637. In words: Antimigratory activity against human 5637 cells at 10 uM after 12 to 48 hrs by wound-healing assay relative to control. The class given is functional.
Test [34] concerns HT-29. In words: Antimigratory activity against human HT-29 cells after 12 to 48 hrs by wound-healing assay. The class given is functional, cell-based.
Test [35] can be described thus: Antimigratory activity against human EC109 cells at 5 uM after 12 to 48 hrs by wound-healing assay relative to control. Type of test: functional. Particulars: ECa-109.

`C=C1CC[C@@H]2[C@](C)(CO)[C@H](O)CC[C@@]2(C)[C@@H]1C/C=C1/C(=O)OC[C@H]1O` [ANDROGRAPHOLIDE]: the Activity result in the test on SGC-7901 [1] was “Dose-dependent effect”. Besides, the “growth inhibition (GI)” value in the test with A549 [2], in the test on HT-29 [4], in the test with SGC-7901 [8], in the test on ECa-109 [12] and in the test with PC-3 [15] was “inactive” each time. The inhibition result in the test on 5637 [3], in the test on ECa-109 [5], in the test with HT-29 [14] and in the test on PC-3 [18] was “inactive” in each case. The inhibition at 10 µM with SGC-7901 [6] came to 20.8%; in the test on SGC-7901 [16] it was 17.7%. Further, the inhibition at 5 µM in the test on A549 [7] was found to be 28.6%; in the test on 5637 [13], 34.5%. Moreover, the inhibition of growth at 5 µM with 5637 [9] worked out at 44%. Also, the inhibition result with SGC-7901 [10] is “Active”. Moreover, in the test on SGC-7901 [11], the outcome was Active. Besides, the outcome in the test with SGC-7901 [17] was inactive.
As for `C=C1CC[C@@H]2[C@](C)(CO)[C@H](O)CC[C@@]2(C)[C@@H]1/C=C/C1=CC(=C/c2ccc(F)cc2)/OC1=O`, the IC50 in the test with A549 [19] stood at 7.2 µM; in the test with SGC-7901 [21], 8 µM. In addition, the “growth inhibition (GI)” value in the test on A549 [2], in the test with HT-29 [4], with SGC-7901 [8], in the test on ECa-109 [12] and in the test with PC-3 [15] was “inactive” each time. For the same compound, the inhibition at 10 µM in test [20] was 34.2%; in the test on HT-29 [14], 39.5%; with PC-3 [18], 34.3%. Besides, the inhibition of growth at 5 µM in the test with 5637 [9] was found to be 32.5%. The inhibition at 5 µM with 5637 [13] amounted to 19.5%.
`C=C1CC[C@@H]2[C@](C)(CO)[C@H](O)CC[C@@]2(C)[C@@H]1/C=C/C1=CC(=C/c2ccc(Cl)cc2)/OC1=O`: the result in the test with SGC-7901 [22], in the test on SGC-7901 [23], with SGC-7901 [24], with SGC-7901 [25], in the test with SGC-7901 [27] and in the test on SGC-7901 [28] was Active. The “growth inhibition (GI)” value in the test on A549 [2], with HT-29 [4], in the test on SGC-7901 [8] and with ECa-109 [12] was “inactive” in each case. Also, the inhibition at 10 µM in test [20] was found to be 40.7%; in the test on HT-29 [14] it was 48.1%; in the test with A549 [29] it was 41.4%; with PC-3 [18] it was 58.5%. For the same compound, the inhibition of growth at 5 µM in the test on 5637 [9] was 25.3%. In the test on 5637 [13], this compound showed an inhibition at 5 µM of 16.4%. For the same compound, in the test with PC-3 [15] (PC-3, 48 h, read-out: GI), the inhibition of growth at 10 µM stood at 11.3%. For the same compound, the figures for the IC50 in the test with SGC-7901 [26] and in the test on SGC-7901 [21] were 4.6 µM and 4.3 µM, respectively.
For `C=C1CC[C@@H]2[C@](C)(CO)[C@H](O)CC[C@@]2(C)[C@@H]1/C=C/C1=CC(=C/c2ccc(OC)cc2)/OC1=O`, the “growth inhibition (GI)” value in the test on A549 [2], in the test with HT-29 [4], in the test on SGC-7901 [8], in the test with ECa-109 [12] and with PC-3 [15] was “inactive” each time. The inhibition at 10 µM in [20] came to 41.3%; in the test with SGC-7901 [6], 48.5%; in the test with HT-29 [14] it was 38.7%; in the test on A549 [29], 35.1%; in the test with PC-3 [18], 34%. Also, the inhibition of growth at 5 µM in the test on 5637 [9] stood at 33.7%. The compound also displayed an inhibition at 5 µM with 5637 [13] of 17.9%.
In turn, `C=C1CC[C@@H]2[C@](C)(COC(=O)c3cccnc3)[C@H](OC(=O)c3cccnc3)CC[C@@]2(C)[C@@H]1/C=C/C1=CC(=C/c2ccc(Cl)cc2)/OC1=O` returned an inhibition at 10 µM in the test on SGC-7901 [6] of 22.3%. Also, the “growth inhibition (GI)” value with SGC-7901 [8], with PC-3 [15] and in the test on 5637 [31] was “inactive” throughout. Also, in the test with 5637 [30], inhibition was half-maximal at 8.1 µM (IC50). Moreover, the inhibition entry with PC-3 [18] was “inactive”.
Take `C=C1CC[C@@H]2[C@](C)(CO)[C@H](O)CC[C@@]2(C)[C@@H]1/C=C/C1=CC(=C/c2ccccc2)/OC1=O`: the “growth inhibition (GI)” value in the test on A549 [2], in the test with HT-29 [4], with SGC-7901 [8], with ECa-109 [12], with PC-3 [15] and with 5637 [31] was “inactive” each time. Besides, the inhibition at 10 µM amounted to 30.3% in the test with SGC-7901 [6] and 44.8% in the test with 5637 [33]. Moreover, the inhibition at 5 µM in the test with A549 [7] was found to be 45.1%; in test [35] it was 45.3%. Moreover, the concentration for half-maximal inhibition (IC50) is 13.2 µM in the test on PC-3 [32] and 48.4 µM with HT-29 [34].

As usually defined, the inhibition is the drop in the measured response relative to a control, in per cent. What is called IC50 is the concentration needed to halve the response being measured. Lower therefore signals inhibition by little substance.
